# In patent US20180155757A1, “IDENTIFICATION OF BACTERIA THAT ARE RESISTANT TO CARBAPENEMS BY MEMBRANE IMPERVIOUSNESS” (BIOMÉRIEUX, priority 2015, published 2018):
# Where two headings read alike, the source gives them in different places.
# What was measured:
# Assay in all cases: Etest MIC of indicator carbapenems on MH II agar without/with PMBN
# Type in all cases: cell-based
# [1] = test system: E. cloacae 1204053 (membrane impermeability)
# How it was run: (§1)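 Etest imipenem/ertapenem/meropenem (IM 32, ETP 32, MP 32). Medium: MH II agar, PMBN 0 to ⅕ MIC. Inoculum: 0.5 McFarland, 0.85% NaCl, swabbed. Read: 16–20 h at 35° C.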
# [2] = test system: E. aerogenes 1204050 (membrane impermeability); details: in µg/mL
# How it was run: as §1
# [3] = test system: E. cloacae 1204058 (membrane impermeability); details: in µg/mL
# How it was run: as §1
# [4] = test system: K. pneumoniae 1012142 (KPC-2 producer)
# How it was run: as §1
# [5] = test system: K. pneumoniae 1204039 (membrane impermeability)
# How it was run: as §1
# [6] = test system: K. pneumoniae 1103183 (NDM producer)
# How it was run: as §1
# [7] = test system: K. pneumoniae 1204036 (membrane impermeability)
# How it was run: as §1
# [8] = test system: E. cloacae 1204052 (membrane impermeability)
# How it was run: as §1
# E. coli SAB 100 (porin−) = details: Escherichia coli
# How it was run: as §1
# [9] = test system: Enterobacter aerogenes EA 5 (porin−); details: Klebsiella aerogenes, E. aerogenes EA 5 (porin−)
# How it was run: as §1
# [10] = test system: K. pneumoniae KP 55 (porin−); details: Klebsiella pneumoniae
# How it was run: as §1
# [11] = test system: E. coli 1008078 (VIM producer)
# How it was run: as §1
# [12] = test system: E. cloacae 1109137 (OXA-48 producer)
# How it was run: as §1
# [13] = test system: K. pneumoniae 1204035 (membrane impermeability); details: in µg/mL
# How it was run: as §1
# [14] = test system: E. cloacae 1204153 (membrane impermeability); details: in µg/mL
# How it was run: as §1
# [15] = test system: Enterobacter aerogenes EA 27 (porin−); details: Klebsiella aerogenes, E. aerogenes EA 27 (porin−), read-out: MIC
# How it was run: as §1
# E. coli SAB 108 (porin−) = details: Escherichia coli
# How it was run: as §1
structure (smiles),measurement,setting,value
"C[C@@H](O)[C@H]1C(=O)N2C(C(=O)O)=C(S[C@@H]3CN[C@H](C(=O)N(C)C)C3)[C@H](C)[C@H]12 [MP, meropenem]",MIC,"[1]; [PMBN] 0, Table 4a",4 µg/mL
same,MIC,"[1]; [PMBN] 100, Table 4a",2 µg/mL
same,MIC,"[1]; [PMBN] 200, Table 4a",2 µg/mL
same,MIC,"[1]; [PMBN] 300, Table 4a",1.5 µg/mL
same,MIC,"[2]; [PMBN] 0, Table 4a",>32
same,MIC,"[2]; [PMBN] 100, Table 4a",2-4
same,MIC,"[2]; [PMBN] 200, Table 4a",1.5-2
same,MIC,"[2]; [PMBN] 300, Table 4a",1
same,MIC,"[3]; [PMBN] 0, Table 4a",>32
same,MIC,"[3]; [PMBN] 100, Table 4a",2
same,MIC,"[3]; [PMBN] 200, Table 4a",0.75
same,MIC,"[3]; [PMBN] 300, Table 4a",0.25
same,MIC,"[4]; [PMBN] 0, Table 4a",> 32 µg/mL
same,MIC,"[4]; [PMBN] 100, Table 4a",> 32 µg/mL
same,MIC,"[4]; [PMBN] 200, Table 4a",> 32 µg/mL
same,MIC,"[4]; [PMBN] 300, Table 4a",> 32 µg/mL
same,MIC,"[5]; [PMBN] 0, Table 4a",0.75 µg/mL
same,MIC,"[5]; [PMBN] 100, Table 4a",0.5 µg/mL
same,MIC,"[5]; [PMBN] 200, Table 4a",0.38 µg/mL
same,MIC,"[5]; [PMBN] 300, Table 4a",0.38 µg/mL
same,MIC,"[6]; [PMBN] 0, Table 4a",> 32 µg/mL
same,MIC,"[6]; [PMBN] 100, Table 4a",> 32 µg/mL
same,MIC,"[6]; [PMBN] 200, Table 4a",24 µg/mL
same,MIC,"[6]; [PMBN] 300, Table 4a",> 32 µg/mL
same,MIC,"[7]; [PMBN] 0, Table 4a",32 µg/mL
same,MIC,"[7]; [PMBN] 100, Table 4a",16 µg/mL
same,MIC,"[7]; [PMBN] 200, Table 4a",6 µg/mL
same,MIC,"[7]; [PMBN] 300, Table 4a",4 µg/mL
same,MIC,"[8]; [PMBN] 0, Table 4a",6 µg/mL
same,MIC,"[8]; [PMBN] 100, Table 4a",0.75 µg/mL
same,MIC,"[8]; [PMBN] 200, Table 4a",1.5 µg/mL
same,MIC,"[8]; [PMBN] 300, Table 4a",0.5 µg/mL
same,MIC,E. coli SAB 100 (porin−); [PMBN] 0,0.125 µg/mL
same,MIC,E. coli SAB 100 (porin−); [PMBN] 50 μg/ml,0.094 µg/mL
same,MIC,E. coli SAB 100 (porin−); [PMBN] 100 μg/ml,0.047 µg/mL
same,MIC,E. coli SAB 100 (porin−); [PMBN] 150 μg/ml,0.032 µg/mL
same,MIC,E. coli SAB 100 (porin−); [PMBN] 200 μg/ml,0.032 µg/mL
same,MIC,"[9]; [PMBN] 0, Table 4",3 µg/mL
same,MIC,[9]; [PMBN] 50 μg/ml,2 µg/mL
same,MIC,[9]; [PMBN] 100 μg/ml,1.5 µg/mL
same,MIC,[9]; [PMBN] 150 μg/ml,0.75 µg/mL
same,MIC,[9]; [PMBN] 200 μg/ml,0.75 µg/mL
same,MIC,[10]; [PMBN] 0,0.19 µg/mL
same,MIC,[10]; [PMBN] 50 μg/ml,0.125 µg/mL
same,MIC,[10]; [PMBN] 100 μg/ml,0.064 µg/mL
same,MIC,[10]; [PMBN] 150 μg/ml,0.064 µg/mL
same,MIC,[10]; [PMBN] 200 μg/ml,0.047 µg/mL
same,MIC,"[11]; [PMBN] 0, Table 4a",0.5 µg/mL
same,MIC,"[11]; [PMBN] 100, Table 4a",0.5 µg/mL
same,MIC,"[11]; [PMBN] 200, Table 4a",0.25 µg/mL
same,MIC,"[11]; [PMBN] 300, Table 4a",0.25 µg/mL
same,MIC,"[12]; [PMBN] 0, Table 4a",3 µg/mL
same,MIC,"[12]; [PMBN] 100, Table 4a",3 µg/mL
same,MIC,"[12]; [PMBN] 200, Table 4a",1.5 µg/mL
same,MIC,"[12]; [PMBN] 300, Table 4a",2 µg/mL
same,MIC,"[13]; [PMBN] 0, Table 4a",8-12
same,MIC,"[13]; [PMBN] 100, Table 4a",2
same,MIC,"[13]; [PMBN] 200, Table 4a",1.5
same,MIC,"[13]; [PMBN] 300, Table 4a",1.5
same,MIC,"[14]; [PMBN] 0, Table 4a",4
same,MIC,"[14]; [PMBN] 100, Table 4a",0.75-1
same,MIC,"[14]; [PMBN] 200, Table 4a",1
same,MIC,"[14]; [PMBN] 300, Table 4a",0.75
same,MIC,"[15]; [PMBN] 0, Table 4",4 µg/mL
same,MIC,[15]; [PMBN] 50 μg/ml,0.75 µg/mL
same,MIC,[15]; [PMBN] 100 μg/ml,0.5 µg/mL
same,MIC,[15]; [PMBN] 150 μg/ml,0.19 µg/mL
same,MIC,[15]; [PMBN] 200 μg/ml,0.094 µg/mL
same,MIC,E. coli SAB 108 (porin−); [PMBN] 0,2 µg/mL
same,MIC,E. coli SAB 108 (porin−); [PMBN] 50 μg/ml,0.125 µg/mL
same,MIC,E. coli SAB 108 (porin−); [PMBN] 100 μg/ml,0.125 µg/mL
same,MIC,E. coli SAB 108 (porin−); [PMBN] 150 μg/ml,0.094 µg/mL
same,MIC,E. coli SAB 108 (porin−); [PMBN] 200 μg/ml,0.094 µg/mL
